Data set [1] can be described thus: Plasma and tumor pharmacokinetics in A2058 xenograft mice. It is filed as in vivo, BALB/c nude mice. The note with it: Compound 1 10 mg/kg; for concentration at 1 h / concentration at 6 h / concentration at 12 h / concentration at 24 h / concentration at 48 h: BALB/c nude, mouse, oral, single dose p.o., Encorafenib 35 mg/kg, Dabrafenib 100 mg/kg; for Time of peak concentration in plasma / Time of peak concentration in tumor: single oral dose, encorafenib 35 mg/kg, dabrafenib 100 mg/kg. On the procedure:
(§1) For the PKPD study, agents were administered to BALB/c nude mice bearing A2058 human melanoma xenografts. Compound 1, encorafenib and dabrafenib were dosed once orally on day 1. Compound 1 was dosed at 10 mg/kg, encorafenib was dosed at 35 mg/kg and dabrafenib was dosed at 100 mg/kg.
To collect non-termination plasma samples, blood samples were collected into the 1.5 mL Eppendorf tubes containing 3 μL of 0.5 M K2 ethylenediaminetetraacetic acid (EDTA-K2). Anticoagulant blood samples were centrifuged at 2500×g at 4° C. for fifteen minutes.
To collect the termination plasma samples, mice were euthanized at predetermined time points after the treatment. Blood samples from the mice were collected into the 1.5 mL Eppendorf tubes containing […] of 0.5 M K2 ethylenediaminetetraacetic acid (EDTA-K2). Anticoagulant blood samples were centrifuged at 2500×g at 4° C. for fifteen minutes.
Tumor samples were collected at predicted time for pharmacokinetic (PK), Western Blot (WB) and formalin-fixed paraffin-embedded (FFPE) sample analysis. The tumor was dissected out, and the tumor sample was split into four parts, from which the 1st part was used for PK analysis, the 2nd part was used for WB analysis, the third part was used for FFPE analysis, and the 4th part was used as a backup for the study. PK and WB samples were transferred into pre-labeled tubes. Samples in tubes were snap-frozen in liquid nitrogen within two minutes after dissection. The samples were stored at −80° C. until analysis. Tumor samples for FFPE analysis were collected and fixed in formalin for twenty-four to forty-eight hours, after which FFPE blocks were prepared for analysis.
The harvested plasma and tumor samples were processed for pharmacokinetics analysis by LC-MS/MS with a concentration range of 0.200˜200 ng/mL for encorafenib, Dabrafenib and Compound 1 in tumor homogenate, 1.00˜1,000 ng/mL for Dabrafenib in plasma and 10.0˜10,000 ng/mL for Compound 1 and encorafenib in plasma.

A further data set relates to p-ERK. Nature of the data set: Western Blot of p-ERK and ERK in A2058 tumor. It is filed as in vivo, human. Conditions: single oral dose; Compound 1 10 mg/kg, encorafenib 35 mg/kg, dabrafenib 100 mg/kg. The protocol: as §1
Previously snap-frozen samples were retrieved from −80° C. ultralow freezer, and 30-100 mg of tumor tissue was cut up. The tissue samples were placed in a 2 mL microcentrifuge tube, and 450 μL of RIPA buffer containing 1% Protease inhibitor cocktail and 1% phosphate inhibitor cocktail 2 were added to the tube. Tumor samples were grinded with Tissuelyser at 50 Hz for five minutes, and the tissue lysates were kept on ice for thirty minutes. Tissue lysates were centrifuged at 15,000 rpm at 4° C. for ten minutes. The supernatants were gently transferred to a new microcentrifuge tube and kept of ice. Protein concentrations in the supernatants were measured using the Pierce™ BCA Protein Assay Kit. Based on the result of BCA protein quantification, the samples were diluted to the same final concentration of 4 μg/μL using RIPA buffer, 4×LDS sample buffer, and 10× sample reducing agent. Diluted samples were heated at 100° C. for ten minutes. Remaining denatured samples were used for western blot analysis or kept in the −80° C. ultralow freezer for long term storage.
Extracted protein samples (5 μL per slot) were loaded to NuPAGE® Novex 4-12% Bis-Tris gel. Electrophoresis was run with MES running buffer at 80 V for thirty minutes, and 120 V for ninety minutes. Protein samples were transferred to nitrocellulose (NC) membranes with iBlot® 2 Gel Transfer Device (P3, seven minutes). The membrane was cut and parts of interest were kept. The membrane was washed with 5 to 10 mL of 1×TBST once for five minutes. Non-specific protein was blocked by 5-10 mL of 1×TBST with 5% nonfat milk at room temperature for one hour. The membrane was washed with 5-10 mL 1×TBST three times for five minutes each. […] Samples were imaged, and chemiluminescence was detected by Amersham Imager 680.
A general note: Immunoblotting shows a protein as a band on a membrane.

The mark [2] stands for this setting: plasma, read-out: Concentration in Plasma ± SEM.
Setting [3] is: tumor, read-out: Concentration in Tumor ± SEM.

Entries after “also recorded” stand apart in the source; their conditions may differ. Like-named read-outs stand apart in the source and are kept apart here.

On to `COC(=O)N[C@@H](C)CNc1nccc(-c2cn(C(C)C)nc2-c2cc(Cl)cc(NS(C)(=O)=O)c2F)n1` [encorafenib], for which, in data set [1] (setting [2]), the concentration at 1 h was determined as 14500 ± 1630 ng/mL, the concentration at 6 h amounted to 1890 ± 654 ng/mL, the concentration at 12 h was 397 ± 106 ng/mL and the concentration at 24 h is 138 ± 112 ng/mL. In addition, in data set [1] (setting [3]), the concentration at 6 h was found to be 289 ± 73 ng/g, the concentration at 12 h was 58.8 ± 18.8 ng/g, the concentration at 24 h was 64.7 ± 36.4 ng/g and the concentration at 48 h is 3.06 ng/g. In addition, in data set [1], the “Time of peak concentration in plasma” value is given as “one” and the “Time of peak concentration in tumor” value is given as “six”. Further, in the data set with p-ERK, the “Expression of p-ERK in A2058 tumor” value is listed as “inhibited the expression of p-ERK from six to twenty-four hours post dose; also recorded: inhibited the expression of p-ERK from six hours to twenty-four hours post dose”.
Take `CC(C)(C)c1nc(-c2cccc(NS(=O)(=O)c3c(F)cccc3F)c2F)c(-c2ccnc(N)n2)s1` [dabrafenib]: in data set [1] (setting [2]), the concentration at 1 h amounted to 5500 ± 1250 ng/mL, the concentration at 6 h was found to be 790 ± 157 ng/mL, the concentration at 12 h is 189 ± 133 ng/mL and the concentration at 24 h was determined as 61.3 ± 53.4 ng/mL. Also, in data set [1] (setting [3]), the concentration at 6 h was found to be 480 ± 63.7 ng/g, the concentration at 12 h was found to be 81.9 ± 40.2 ng/g, the concentration at 24 h worked out at 60.1 ng/g and the concentration at 48 h came to 8.55 ± 4.03 ng/g. Also, in data set [1], the “Time of peak concentration in plasma” value is given as “one” and the “Time of peak concentration in tumor” value is on record as “six”. Besides, the “Expression of p-ERK in A2058 tumor” value in the data set on p-ERK was “inhibited the expression of p-ERK from six to twenty-four hours post dose; also recorded: inhibited the expression of p-ERK from six hours to twenty-four hours post dose”.
As for `CCN(C)S(=O)(=O)Nc1ccc(F)c(Oc2ccc3ncn([C@H]4COC5(CCN(C(=O)CC6(O)CCN(c7cc8c(cc7F)c(N7CCC(=O)NC7=O)nn8C)CC6)CC5)C4)c(=O)c3c2)c1C#N` [Compound 1, (3R)-3-[6-[2-cyano-3-[[ethyl(methyl)sulfamoyl]amino]-6-fluorophenoxy]-4-oxoquinazolin-3-yl]-8-[2-[1-[3-(2,4-dioxo-1,3-diazinan-1-yl)-5-fluoro-1-methylindazol-6-yl]-4-hydroxypiperidin-4-yl]acetyl]-1-oxa-8-azaspiro[4.5]decane], in data set [1] (setting [2]), the concentration at 1 h came out at 32500 ± 1680 ng/mL, the concentration at 6 h stood at 8500 ± 2970 ng/mL, the concentration at 12 h came to 429 ± 137 ng/mL and the concentration at 24 h was determined as 190 ± 63.2 ng/mL. Also, in data set [1] (setting [3]), the concentration at 6 h is 1170 ± 352 ng/g, the concentration at 12 h turned out to be 191 ± 74.4 ng/g, the concentration at 24 h was 76 ± 18.3 ng/g and the concentration at 48 h was found to be 16.1 ± 6.73 ng/g. In addition, in data set [1], the “Time of peak concentration in plasma” value is given as “one” and the “Time of peak concentration in tumor” value is reported as “six”. For the same compound, the “Expression of p-ERK in A2058 tumor” value in the data set with p-ERK is recorded as “inhibited the expression of p-ERK from six to twenty-four hours post dose; also recorded: inhibited the expression of p-ERK from six hours to twenty-four hours post dose”.

(Values after patent US20250289827A1, “MORPHIC FORMS OF A MUTANT BRAF DEGRADER AND METHODS OF MANUFACTURE THEREOF” (C4 THERAPEUTICS, INC., priority 2022, published 2025).)
